Reference: US20240254138A1, “TRICYCLIC PYRIMIDINES AS CYCLIN-DEPENDENT KINASE 7 (CDK7) INHIBITORS” (JANSSEN PHARMACEUTICA NV, priority 2021, published 2024)
Where two headings read alike, the source gives them in different places.

How the values were obtained:
[1] = system: RNA Polymerase II Serine 5 phosphorylation (Rpb1 CTD, downstream substrate of CDK7) in A549 cells; assay: Imaging-based cellular RNA PolII Ser5 phosphorylation assay in A549 cells; type: cell-based, human; conditions: wild-type CDK7, RNA PolII Ser5 phosphorylation, averaged over all measurements; for IC50: Homo sapiens, A549, A549 cells, read-out: CDK7_A549 Wild-type CDK7 (pIC50) (converted); for CDK7_A549 Wild-type CDK7 (pIC50): A549 cells
Outline: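 IC50 derived by fitting % control (DMSO high, 10 μM reference low) against concentration, with Hill slope. Readout: high-content imaging of phospho-Ser5 Rpb1 CTD antibody staining in fixed, permeabilized A549 cells exposed to compound 3 h after 20 h culture in 1% FBS DMEM.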

[2] = system: RNA Polymerase II Serine 5 phosphorylation in A549 cells overexpressing CDK7-mutant (C312S); assay: Imaging-based cellular RNA PolII Ser5 phosphorylation assay in A549 cells overexpressing CDK7-mutant (C312S); type: cell-based, human; conditions: RNA PolII Ser5 phosphorylation, averaged over all measurements; for IC50: Homo sapiens, A549, A549 cells overexpressing CDK7-mutant (C312S), read-out: CDK7_A549 mutant hCDK7(pIC50) (converted); for CDK7_A549 mutant hCDK7(pIC50): A549 cells overexpressing CDK7-mutant (C312S)
Outline: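 Readout was automated imaging of anti-phospho-Ser5 Rpb1 CTD immunofluorescence, with IC50 fitted to % control versus concentration. Cells were A549 stably overexpressing non-covalently targetable CDK7 C312S alongside wild-type, exposed to compound 3 h at 37 °C. DMSO and 10 μM reference compound served as controls.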

[3] = biological target: CDK7/cyclinH/MAT1 trimeric complex (Homo sapiens, UniProt P50613); assay: In vitro CDK7 assay, potency of irreversible covalent inhibitors (kinact/KI), coupled PK/LDH ADP readout at 340 nm; conditions: for CDK7 (20 nM enz.) (kinact, s^−1) / CDK7 (20 nM enz.) (kinact/KI, M^−1*s^−1) / Ki / CDK7 (20 nM enz.) (kobs/[I], M^−1*s^−1): 20 nM enzyme; for Ki: CDK7 (20 nM enz.) (KI, μM); for kinact: read-out: CDK7 (20 nM enz.) (kinact, s^−1), 20 nM enzyme
CDK7/cyclinH/MAT1 trimeric complex, sequence (P50613 whole entry): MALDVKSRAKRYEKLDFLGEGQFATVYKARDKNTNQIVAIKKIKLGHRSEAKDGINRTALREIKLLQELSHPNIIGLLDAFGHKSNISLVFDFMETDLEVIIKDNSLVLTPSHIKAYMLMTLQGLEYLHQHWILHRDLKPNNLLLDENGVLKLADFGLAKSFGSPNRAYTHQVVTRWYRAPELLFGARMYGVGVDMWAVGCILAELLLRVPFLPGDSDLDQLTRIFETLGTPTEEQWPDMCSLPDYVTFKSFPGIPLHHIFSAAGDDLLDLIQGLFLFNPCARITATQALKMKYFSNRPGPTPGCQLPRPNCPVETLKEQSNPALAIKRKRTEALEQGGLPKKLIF
CDK7/cyclinH/MAT1 trimeric complex, sequence (P51946 whole entry partner): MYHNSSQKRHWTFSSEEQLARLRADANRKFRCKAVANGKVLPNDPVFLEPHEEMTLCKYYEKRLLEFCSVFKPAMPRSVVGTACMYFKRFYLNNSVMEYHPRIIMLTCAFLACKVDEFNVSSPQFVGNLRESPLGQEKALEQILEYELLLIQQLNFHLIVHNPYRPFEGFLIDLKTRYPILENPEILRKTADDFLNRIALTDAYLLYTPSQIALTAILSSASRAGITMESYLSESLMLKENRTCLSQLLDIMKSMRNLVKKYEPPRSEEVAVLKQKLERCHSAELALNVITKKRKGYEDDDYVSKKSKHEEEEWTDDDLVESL
CDK7/cyclinH/MAT1 trimeric complex, sequence (P51948 whole entry partner): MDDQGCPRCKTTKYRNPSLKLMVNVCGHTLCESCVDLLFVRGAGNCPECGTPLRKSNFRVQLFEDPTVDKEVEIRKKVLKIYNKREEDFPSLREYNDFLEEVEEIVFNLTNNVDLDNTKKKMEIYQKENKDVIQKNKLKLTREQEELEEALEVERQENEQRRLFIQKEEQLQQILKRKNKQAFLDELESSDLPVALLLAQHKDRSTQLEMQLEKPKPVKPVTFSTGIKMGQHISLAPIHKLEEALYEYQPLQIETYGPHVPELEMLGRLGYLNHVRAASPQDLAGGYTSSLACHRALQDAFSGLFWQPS

[4] = read-out: CDK7 (20 nM enz.) (kobs/[I], M^−1*s^−1), 20 nM enzyme
[5] = read-out: CDK7 (20 nM enz.) (kinact/KI, M^−1*s^−1), 20 nM enzyme

C=CC(=O)N1CCC(N2CC(c3cc(C)c4c(c3)Nc3nccc(-c5cnn(C)c5)c3CO4)C2)CC1 [Compound 100]
IC50 [1]: 51.3 nM
IC50 [2]: 3.31 µM
CDK7 (20 nM enz.) (kinact, s^−1) [3]: 5.051e-05 s⁻¹
CDK7 (20 nM enz.) (kinact/KI, M^−1*s^−1) [3]: 1179.87 M⁻¹ s⁻¹

C=CC(=O)N1CC(N2CCC(c3cc(Cl)c4c(c3)Nc3nccc(C5CCOCC5)c3CO4)CC2)C1 [Compound 101]
IC50 [1]: 64.6 nM
IC50 [2]: > 10 µM
kinact/KI [3, 4]: 1110 M⁻¹ s⁻¹

C=CC(=O)N1CCC(N2CC(c3cc4c(c(C(F)(F)F)c3)OCc3c(-c5cnn(C)c5)ccnc3N4)C2)CC1 [Compound 102]
IC50 [1]: 40.7 nM
IC50 [2]: 3.55 µM
Ki [3]: 0.0268 µM
kinact [3]: 4.38e-05 s⁻¹
kinact/KI [3, 5]: 1630 M⁻¹ s⁻¹

C=CC(=O)N1CC(N2CCC(c3cc(Cl)c4c(c3)Nc3nccc(N5CCS(=O)(=O)CC5)c3CO4)CC2)C1 [Compound 103]
IC50 [1]: 126 nM
IC50 [2]: > 10 µM
Ki [3]: 0.0424 µM
kinact [3]: 8.56e-05 s⁻¹
kinact/KI [3, 5]: 2020 M⁻¹ s⁻¹

C=CC(=O)N1CCC(N2CCC(c3cc(C)c4c(c3)Nc3nccc(-c5cnn(C)c5)c3CO4)CC2)CC1 [Compound 105]
IC50 [1]: 16.2 nM
IC50 [2]: 2.57 µM
Ki [3]: 0.0256 µM
kinact [3]: 5.8e-05 s⁻¹
kinact/KI [3, 5]: 2260 M⁻¹ s⁻¹

C=CC(=O)N1CC(N2CCC(c3ccc4c(c3)Nc3nccc(N5CCOCC5)c3CO4)CC2)C1 [Compound 107]
IC50 [1]: 110 nM
IC50 [2]: > 10 µM
Ki [3]: 0.056 µM
kinact [3]: 5.28e-05 s⁻¹
kinact/KI [3, 5]: 943 M⁻¹ s⁻¹

C=CC(=O)N1CC(c2ncc(-c3cc(C)c4c(c3)Nc3nccc(N5CCS(=O)(=O)CC5)c3CO4)cn2)C1 [Compound 108]
IC50 [1]: 933 nM
IC50 [2]: > 10 µM
Ki [3]: 0.57 µM
kinact [3]: 5.75e-05 s⁻¹
kinact/KI [3, 5]: 101 M⁻¹ s⁻¹

C=CC(=O)N1CC(N2CC[C@H](c3ccc4c(c3)Nc3nccc(N5CCOCC5)c3CO4)[C@@H](F)C2)C1 [Compound 110]
IC50 [1]: 257 nM
IC50 [2]: > 10 µM
CDK7 (20 nM enz.) (kinact, s^−1) [3]: 5.833e-05 s⁻¹
CDK7 (20 nM enz.) (kinact/KI, M^−1*s^−1) [3]: 253.792 M⁻¹ s⁻¹
Ki [3]: 0.23 µM

C=CC(=O)N1CCC(N2CC(c3cc4c(c(C(F)(F)F)c3)OCc3c(N5CCOCC5)ccnc3N4)C2)CC1 [Compound 111]
IC50 [1]: 45.7 nM
IC50 [2]: 4.17 µM
kinact/KI [3, 4]: 622 M⁻¹ s⁻¹

C=CC(=O)N1CCC(N2CC(c3cc(F)c4c(c3)Nc3nccc(C5CCOCC5)c3CO4)C2)CC1 [Compound 112]
IC50 [1]: 155 nM
IC50 [2]: 8.51 µM
Ki [3]: 0.0653 µM
kinact [3]: 4.53e-05 s⁻¹
kinact/KI [3, 5]: 693 M⁻¹ s⁻¹

C=CC(=O)N1CCC(N2CCC(c3ccc4c(c3)Nc3nccc(N5CCS(=N)(=O)CC5)c3CO4)CC2)CC1 [Compound 113]
IC50 [1]: 380 nM
IC50 [2]: > 10 µM
Ki [3]: 0.39 µM
kinact [3]: 6.16e-05 s⁻¹
kinact/KI [3, 5]: 158 M⁻¹ s⁻¹

C=CC(=O)N1CC(c2ncc(-c3cc(C)c4c(c3)Nc3nccc(C5CCOCC5)c3CO4)cn2)C1 [Compound 114]
IC50 [1]: 50.1 nM
IC50 [2]: > 10 µM
Ki [3]: 0.0779 µM
kinact [3]: 4.23e-05 s⁻¹
kinact/KI [3, 5]: 543 M⁻¹ s⁻¹

C=CC(=O)N1CC(N2CCC(c3cc(Cl)c4c(c3)Nc3nccc(N5CCS(=O)(=O)CC5)c3CO4)CC2)C1 [Compound 115]
CDK7_A549 Wild-type CDK7 (pIC50) [1]: 6.66
CDK7_A549 mutant hCDK7(pIC50) [2]: <5
CDK7 (20 nM enz.) (kinact, s^−1) [3]: 5.802e-05 s⁻¹
CDK7 (20 nM enz.) (kinact/KI, M^−1*s^−1) [3]: 1193.86 M⁻¹ s⁻¹
Ki [3]: 0.0486 µM

C=CC(=O)N1CCC(c2nc(C)c(-c3cc(C)c4c(c3)Nc3nccc(C5CCOCC5)c3CO4)c(C)n2)CC1 [Compound 116]
IC50 [1]: 398 nM
IC50 [2]: > 10 µM
Ki [3]: 0.293 µM
kinact [3]: 5.05e-05 s⁻¹
kinact/KI [3, 5]: 173 M⁻¹ s⁻¹

C=CC(=O)N1CCC(N2CC(c3cc(F)c4c(c3)Nc3nccc(-c5cnn(C)c5)c3CO4)C2)CC1 [Compound 117]
IC50 [1]: 126 nM
IC50 [2]: 7.76 µM
Ki [3]: 0.0512 µM
kinact [3]: 4.56e-05 s⁻¹
kinact/KI [3, 5]: 891 M⁻¹ s⁻¹

C#Cc1cc(C2CCN(C3CN(C(=O)C=C)C3)CC2)cc2c1OCc1c(C3CCOCC3)ccnc1N2 [Compound 118]
IC50 [1]: 70.8 nM
IC50 [2]: > 10 µM
kinact/KI [3, 4]: 1620 M⁻¹ s⁻¹

C=CC(=O)N1CC(N2CCC(c3cc(Cl)c4c(c3)Nc3nccc(C5CCOCC5)c3CO4)CC2)C1 [Compound 119]
CDK7_A549 Wild-type CDK7 (pIC50) [1]: 7.42
CDK7_A549 mutant hCDK7(pIC50) [2]: <5
CDK7 (20 nM enz.) (kobs/[I], M^−1*s^−1) [3]: 1611.37 M⁻¹ s⁻¹

C#Cc1cc2c(cc1C1CCN(C3CN(C(=O)C=C)C3)CC1)Nc1nccc(C3CCOCC3)c1CO2 [Compound 120]
IC50 [1]: 331 nM
IC50 [2]: > 10 µM
Ki [3]: 0.0783 µM
kinact [3]: 8.13e-05 s⁻¹
kinact/KI [3, 5]: 1040 M⁻¹ s⁻¹

C=CC(=O)N1CC(N2CCC(c3ccc4c(c3)Nc3nccc(N5CCOCC5)c3CO4)CC2)C1 [Compound 121]
CDK7_A549 Wild-type CDK7 (pIC50) [1]: 6.9
CDK7_A549 mutant hCDK7(pIC50) [2]: <5
CDK7 (20 nM enz.) (kinact, s^−1) [3]: 9.753e-05 s⁻¹
CDK7 (20 nM enz.) (kinact/KI, M^−1*s^−1) [3]: 1012.54 M⁻¹ s⁻¹
Ki [3]: 0.0963 µM

C#CCCN(C)C/C=C/C(=O)N1CC(N2CCC(c3cc(C)c4c(c3)Nc3nccc(N5CCOCC5)c3CO4)CC2)C1 [Compound 122]
IC50 [1]: 69.2 nM
IC50 [2]: > 10 µM
kinact/KI [3, 4]: 1660 M⁻¹ s⁻¹

C=CC(=O)N1CC(N2CCC(c3ccc4c(c3)Nc3nccc(C5CCOCC5)c3CO4)CC2)C1 [Compound 123]
CDK7_A549 Wild-type CDK7 (pIC50) [1]: 7.15
CDK7_A549 mutant hCDK7(pIC50) [2]: <5
Ki [3]: 0.0244 µM
kinact [3]: 3.4e-05 s⁻¹
kinact/KI [3, 5]: 1390 M⁻¹ s⁻¹

C#CCCN(C)C/C=C/C(=O)N1CC(N2CCC(c3cc(C)c4c(c3)Nc3nccc(C5CCOCC5)c3CO4)CC2)C1 [Compound 124]
IC50 [1]: 97.7 nM
IC50 [2]: > 10 µM
kinact/KI [3, 4]: 1550 M⁻¹ s⁻¹

C=CC(=O)N1CC(N2CCC(c3cc(C#N)c4c(c3)Nc3nccc(C5CCOCC5)c3CO4)CC2)C1 [Compound 125]
IC50 [1]: 27.5 nM
IC50 [2]: 7.24 µM
kinact/KI [3, 4]: 1230 M⁻¹ s⁻¹

C=CC(=O)N1CC(N2CCC(c3cc(F)c4c(c3)Nc3nccc(-c5cnn(C)c5)c3CO4)CC2)C1 [Compound 126]
IC50 [1]: 47.9 nM
IC50 [2]: > 10 µM
CDK7 (20 nM enz.) (kobs/[I], M^−1*s^−1) [3]: 875.576 M⁻¹ s⁻¹

C=CC(=O)N1CC(c2nc(C)c(-c3cc(C)c4c(c3)Nc3nccc(C5CCOCC5)c3CO4)c(C)n2)C1 [Compound 129]
IC50 [1]: 151 nM
IC50 [2]: > 10 µM
Ki [3]: 0.17 µM
kinact [3]: 5.48e-05 s⁻¹
kinact/KI [3, 5]: 323 M⁻¹ s⁻¹

C=CC(=O)N1CC(N2CCC(c3cc4c(cn3)OCc3c(C5CCOCC5)ccnc3N4)CC2)C1 [Compound 130]
IC50 [1]: 97.7 nM
IC50 [2]: > 10 µM
Ki [3]: 0.11 µM
kinact [3]: 7.73e-05 s⁻¹
kinact/KI [3, 5]: 704 M⁻¹ s⁻¹

C=CC(=O)N1CC(N2CCC(c3ccc4c(c3)Nc3nccc(N5CCc6nn(C)cc6C5)c3CO4)CC2)C1 [Compound 132]
IC50 [1]: 363 nM
IC50 [2]: > 10 µM
Ki [3]: 0.312 µM
kinact [3]: 7.08e-05 s⁻¹
kinact/KI [3, 5]: 227 M⁻¹ s⁻¹

C=CC(=O)N1CC(N2CCC(c3cc(C)c4c(c3)Nc3nccc(C5CCS(=O)(=O)CC5)c3CO4)CC2)C1 [Compound 133]
IC50 [1]: 166 nM
IC50 [2]: > 10 µM
Ki [3]: 0.0971 µM
kinact [3]: 6.94e-05 s⁻¹
kinact/KI [3, 5]: 715 M⁻¹ s⁻¹
